Test results published in patent US5817677A, “5-membered heterocycles, medicaments containing these compounds, their use and processes for their preparation” (priority 1995, dated 1998).
pEC50, pIC50: −log10 of the molar value. Structures can show the parent of a compound that is named as a salt.

Key:
human platelets = test: Inhibition of the binding of ^3 H-BIBU 52 to human platelets (fibrinogen binding test); conditions: ^3 H-BIBU 52 5 nM, human platelet-rich plasma, room temperature, 20 minutes; 50% inhibition of binding
Method: 1. Inhibition of the binding of ^3 H-BIBU 52 to human platelets
The free and bound ligand is separated by centrifugation and quantitatively determined by scintillation counting. From the measurements, the inhibition of ^3 H-BIBU 52 binding by the test substance is determined.
For this purpose, donor blood is taken from an anticubital vein and anticoagulated with trisodium citrate (final concentration 13 mM). The blood is centrifuged at 170×g for 10 minutes and the supernatant platelet-rich plasma (PRP) is removed. The remaining blood is intensely centrifuged off once more to obtain plasma. The PRP is diluted 1:10 with autologous plasma. […] are incubated with […] of physiological saline solution, 100 ml of test substance solution, 50 ml of ^14 C-sucrose (3700 Bq) and 50 ml of ^3 H-BIBU-52 (final concentration: 5 nM at room temperature for 20 minutes. To measure the non-specific binding, instead of the test substance 5 ml of BIBU 52 (final concentration: […]) are employed. The samples are centrifuged at 10,000×g for 20 seconds and the supernatant is removed. 100 ml of this are measured to determine the free ligand. The pellet is dissolved in 500 ml of 0.2N NaOH, and 450 ml are treated with 2 ml of scintillator and 25 ml of 5N Hcl and measured. The residual plasma still remaining in the pellet is determined from the ^14 C content, the bound ligand from ^3 H-measurement.

platelet aggregation = test: Inhibition of collagen-induced platelet aggregation (Born and Cross) in platelet-rich plasma; type: cell-based, human (platelet-rich plasma of healthy subjects); conditions: human platelet-rich plasma, 10 minutes preincubation at 37° C., 50% change in optical density
Method: 2. Antithrombotic effect Platelets aggregation is measured by the method of Born and Cross (J. Physiol. 170, 397 (1964)) in platelet-rich plasma of healthy subjects. To inhibit clotting, the blood is treated with sodium citrate, 3.14% in the volume ratio 1:10. Collagen-induced aggregation The course of the decrease in the optical density of the platelet suspension is measured and recorded photometrically after addition of the aggregation-inducing substance. From the angle of inclination of the density curve, the aggregation rate is deduced. The point of the curve at which the greatest light transmission exists is used to calculate the optical density. The amount of collagen is selected to be as low as possible, but in such a way that a reaction curve with an irreversible course results. Commercially available collagen from Hormonchemie, Munich, is used. Before the addition of collagen, the plasma is in each case incubated at 37° C. with the substance for 10 minutes. From the measurements obtained, an EC50 is determined graphically which relates to a 50% change in the optical density in the sense of an inhibition of aggregation.

| Structure (SMILES) | pIC50 (human platelets) | pEC50 (platelet aggregation) |
| --- | --- | --- |
| COC(=O)COc1ccc(NC(=O)c2sc(C3CCNCC3)nc2C)cc1 [2(3), 5-[[4-(Methoxycarbonylmethoxy)phenyl]aminocarbonyl]-4-methyl-2-(4-piperidyl)-1,3-thiazole hydrobromide] | 6.52 | 6.85 |
| O=C(O)CO[C@H]1CC[C@H](NC(=O)c2cnc(C3CCNCC3)s2)CC1 [2(12), 5-[[trans-4-(Carboxymethoxy)cyclohexyl]aminocarbonyl]-2-(4-piperidyl)-1,3-thiazole hydrobromide] | 7.14 | 6.85 |
| Cc1nc(C2CCNCC2)sc1C(=O)Nc1ccc(OCC(=O)O)cc1 [4(3), 5-[[4-(Carboxymethoxy)phenyl]aminocarbonyl]-4-methyl-2-(4-piperidyl)-1,3-thiazole hydrobromide] | 7.35 | 6.89 |
| O=C(O)COc1ccc(NC(=O)c2nnc(C3CCNCC3)s2)cc1 [4(6), 5-[[4-(Carboxymethoxy)phenyl]aminocarbonyl]-2-(4piperidyl)-1,3,4-thiadiazole hydrochloride] | 7.19 | 6.77 |
| O=C(/C=C/c1cn(C2CCNCC2)cn1)N[C@H]1CC[C@H](C(=O)O)CC1 [4(8), 4-[trans-2-[(trans-4-Carboxycyclohexyl)aminocarbonyl]-ethenyl]-1-(4-piperidyl)imidazole dihydrochloride] | 5.60 | 5.74 |
| O=C(O)COc1ccc(NC(=O)c2cnc(C3CCNCC3)s2)cc1 [4(19), 5-[[4-(Carboxymethoxy)phenyl]aminocarbonyl]-2-(4-piperidyl)-1,3-thiazole hydrate] | 7.42 | 7.00 |
| O=C(O)CC[C@H]1CC[C@H](NC(=O)c2cnc(C3CCNCC3)s2)CC1 [4(20), 5-[[trans-4-(2-Carboxyethyl)cyclohexyl]aminocarbonyl]-2-(4-piperidyl)-1,3-thiazole hydrobromide] | 7.20 | 6.92 |
| O=C(N[C@H]1CC[C@H](C(=O)O)CC1)c1cn(CCC2CCNCC2)cn1 [4(27), 4-[[trans-4-Carboxycyclohexyl]aminocarbonyl]-1-[2-(4-piperidyl)ethyl]imidazole dihydrochloride] | 6.72 | 6.55 |
| CS(=O)(=O)N(CC(=O)O)[C@H]1CC[C@H](C(=O)Nc2cn(C3CCNCC3)cn2)CC1 [5(2), 4-[[trans-4-(N-Carboxymethyl-N-methanesulphonylamino)-cyclohexyl]carbonylamino]-1-(4-piperidyl)imidazole dihydrochloride] | 5.80 | 5.42 |
| O=C(O)CC[C@H]1CC[C@H](NC(=O)c2cn(C3CCNCC3)cn2)CC1 [Example 4, 4-[[trans-4-(2-Carboxyethyl)cyclohexyl]aminocarbonyl]-1-(4-piperidyl)imidazole dihydrochloride] | 6.92 | 6.80 |
